In US20250025482A1, “USE OF C[…] THE TREATMENT OF EPILEPSY” (GW Research Limited, priority 2021, published 2025):

Experiments:
Assay type in all cases: in vivo, human (patients)
[1] = tested on: Patients aged 1-2 years old with Lennox-Gastaut Syndrome (LGS); assay: Expanded access treatment with highly purified CBD extract, seizure frequency, Patient 2 (Lennox-Gastaut Syndrome); set-up: key to Seizure frequency, Clonic / Seizure frequency, Tonic / Seizure frequency, Atonic / Seizure frequency, Absence: number of seizures per day; conditions: for Seizure frequency, Tonic: baseline 4.0; for Seizure frequency, Absence: baseline 120.0; for Seizure frequency, Clonic: baseline 200.0; for Seizure frequency, Atonic: baseline 300.0
Procedure: (§1) Example 1 below describes the use of a highly purified cannabis extract comprising cannabidiol (CBD) in an expanded access treatment program in children with TRE.
(§2) Patients aged 1-2 years old with Dravet Syndrome (DS), Lennox-Gastaut Syndrome (LGS), or Tuberous Sclerosis Complex (TSC) were administered a highly purified extract of cannabidiol (CBD) obtained from a cannabis plant […].
(§3) The highly purified CBD extract (greater than 98% CBD w/w) was administered in a formulation described herein at a starting dose of 5 mg/kg/day in addition to their baseline anti-epileptic drug (AED) regimen.
(§4) The starting dose of the patients was increased from 5 mg/kg/day to 10 mg/kg/day after one week of administering the first dose of CBD.
(§5) All patients were taking at least two concomitant anti-epileptic drugs. These included clobazam; levetiracetam; topiramate; vigabatrin; phenobarbital; and lacosamide.
(§6) Prior to treatment with CBD, the number of seizures for each patient at baseline was recorded. During the course of treatment, the number of seizures that each patient experienced per day was recorded. Table 9 provides information on the demographics, seizure type, and concomitant anti-epileptic drugs (AED) for each patient that was administered the highly purified extract of CBD.

seizures in patients = assay: Onset of effect of seizure reduction during CBD titration; conditions: patients receiving 5 mg/kg/day; e.g., at 2, 3, 4, 5, or 6 days
[2] = tested on: Patients aged 1-2 years old with Dravet Syndrome (DS); assay: Expanded access treatment with highly purified CBD extract, seizure frequency, Patient 1 (Dravet Syndrome); set-up: key to Seizure frequency, Clonic / Seizure frequency, Tonic-clonic / Seizure frequency, Focal with impairment: number of seizures per day; conditions: for Seizure frequency, Focal with impairment / Seizure frequency, Tonic-clonic: baseline 3.0; for Seizure frequency, Clonic: baseline 4.0
Procedure: as §1, §2, §3, §4, §5, §6

[3] = tested on: Patients aged 1-2 years old with Tuberous Sclerosis Complex (TSC); assay: Expanded access treatment with highly purified CBD extract, seizure frequency, Patient 3 (Tuberous Sclerosis Complex); set-up: key to Seizure frequency, Focal with impairment / Seizure frequency, Focal without impairment: number of seizures per day; conditions: for Seizure frequency, Focal without impairment / Seizure frequency, Focal with impairment / Seizure frequency, Focal with secondary generalisation: Patient 3, Tuberous Sclerosis; for Seizure frequency, Focal without impairment: baseline 0.0; for Seizure frequency, Focal with impairment: baseline 25.4; for Seizure frequency, Focal with secondary generalisation: baseline 63.0
Procedure: as §1, §2, §3, §4, §5, §6

[4] = Patient 2, Lennox-Gastaut Syndrome, 4 weeks, dose CBD 25.0 mg/kg/day
[5] = Patient 2, Lennox-Gastaut Syndrome, 8 weeks, dose CBD 50.0 mg/kg/day
[6] = Patient 2, Lennox-Gastaut Syndrome, 12 weeks, dose CBD 49.6 mg/kg/day
[7] = Patient 2, Lennox-Gastaut Syndrome, 24 weeks, dose CBD 49.0 mg/kg/day
[8] = Patient 2, Lennox-Gastaut Syndrome, 36 weeks, dose CBD 48.6 mg/kg/day
[9] = Patient 2, Lennox-Gastaut Syndrome, 60 weeks, dose CBD 3.7 mg/kg/day
[10] = Patient 2, Lennox-Gastaut Syndrome, 72 weeks, dose CBD 50.0 mg/kg/day
[11] = Patient 2, Lennox-Gastaut Syndrome, over the treatment period
[12] = Patient 1, Dravet Syndrome, 2 weeks, dose CBD 11.7 mg/kg/day
[13] = Patient 1, Dravet Syndrome, 4 weeks, dose CBD 19.2 mg/kg/day
[14] = Patient 1, Dravet Syndrome, 8 weeks, dose CBD 24.3 mg/kg/day
[15] = Patient 1, Dravet Syndrome, 16 weeks, dose CBD 25.4 mg/kg/day
[16] = Patient 1, Dravet Syndrome, 24 weeks, dose CBD 24.8 mg/kg/day
[17] = Patient 1, Dravet Syndrome, 36 weeks, dose CBD 23.0 mg/kg/day
[18] = Patient 1, Dravet Syndrome, 48 weeks, dose CBD 22.6 mg/kg/day
[19] = Patient 1, Dravet Syndrome, over the treatment period
[20] = Patient 3, Tuberous Sclerosis Complex, over the treatment period
[21] = 2 weeks, dose CBD 10.0 mg/kg/day
[22] = 4 weeks, dose CBD 20.0 mg/kg/day
[23] = 8 weeks, dose CBD 15.0 mg/kg/day
[24] = 16 weeks, dose CBD 15.0 mg/kg/day
[25] = 24 weeks, dose CBD 13.0 mg/kg/day
[26] = 36 weeks, dose CBD 13.0 mg/kg/day
[27] = 48 weeks, dose CBD 13.0 mg/kg/day
[28] = 60 weeks, dose CBD 11.5 mg/kg/day
[29] = 84 weeks, dose CBD 27.0 mg/kg/day
[30] = 96 weeks, dose CBD 22.0 mg/kg/day
[31] = 108 weeks, dose CBD 13.0 mg/kg/day
[32] = 120 weeks, dose CBD 29.0 mg/kg/day
[33] = 144 weeks, dose CBD 35.0 mg/kg/day

C=C(C)[C@@H]1CCC(C)=C[C@H]1c1c(O)cc(CCCCC)cc1O [CBD, Cannabidiol]
relief from clonic seizures after treatment ([1]; Patient 2): complete relief
Seizure frequency, Tonic [1, 4]: 116.0
Seizure frequency, Absence [1, 4]: 116.0
Seizure frequency, Clonic [1, 4]: 64.0
Seizure frequency, Atonic [1, 4]: 388.0
Seizure frequency, Tonic [1, 5]: 48.0
Seizure frequency, Absence [1, 5]: 78.0
Seizure frequency, Clonic [1, 5]: 40.0
Seizure frequency, Atonic [1, 5]: 564.0
Seizure frequency, Tonic [1, 6]: 116.0
Seizure frequency, Absence [1, 6]: 140.0
Seizure frequency, Clonic [1, 6]: 40.0
Seizure frequency, Atonic [1, 6]: 300.0
Seizure frequency, Tonic [1, 7]: 116.0
Seizure frequency, Absence [1, 7]: 140.0
Seizure frequency, Clonic [1, 7]: 40.0
Seizure frequency, Atonic [1, 7]: 280.0
Seizure frequency, Tonic [1, 8]: 116.0
Seizure frequency, Absence [1, 8]: 140.0
Seizure frequency, Clonic [1, 8]: 40.0
Seizure frequency, Atonic [1, 8]: 280.0
Seizure frequency, Tonic [1, 9]: 1.0
Seizure frequency, Absence [1, 9]: 40.0
Seizure frequency, Clonic [1, 9]: 0.0
Seizure frequency, Atonic [1, 9]: 1.0
Seizure frequency, Tonic [1, 10]: 20.0
Seizure frequency, Absence [1, 10]: 0.0
Seizure frequency, Clonic [1, 10]: 0.0
Seizure frequency, Atonic [1, 10]: 0.0
reduction in absence seizures [1, 11]: 100%
reduction in atonic seizures [1, 11]: 100%
reduction in clonic seizures [1, 11]: 100%
onset of effect of seizure reduction (seizures in patients): within one week
relief from clonic seizures after treatment ([2]; Patient 1): complete relief
relief from focal seizures with impairment after treatment ([2]; Patient 1): complete relief
Seizure frequency, Focal with impairment [2, 12]: 0.0
Seizure frequency, Tonic-clonic [2, 12]: 4.0
Seizure frequency, Clonic [2, 12]: 6.0
Seizure frequency, Focal with impairment [2, 13]: 0.0
Seizure frequency, Tonic-clonic [2, 13]: 2.0
Seizure frequency, Clonic [2, 13]: 4.0
Seizure frequency, Focal with impairment [2, 14]: 0.0
Seizure frequency, Tonic-clonic [2, 14]: 0.0
Seizure frequency, Clonic [2, 14]: 2.0
Seizure frequency, Focal with impairment [2, 15]: 0.0
Seizure frequency, Tonic-clonic [2, 15]: 0.0
Seizure frequency, Clonic [2, 15]: 2.6
Seizure frequency, Focal with impairment [2, 16]: 0.0
Seizure frequency, Tonic-clonic [2, 16]: 1.6
Seizure frequency, Clonic [2, 16]: 0.8
Seizure frequency, Focal with impairment [2, 17]: 0.0
Seizure frequency, Tonic-clonic [2, 17]: 6.9
Seizure frequency, Clonic [2, 17]: 0.0
Seizure frequency, Focal with impairment [2, 18]: 0.0
Seizure frequency, Tonic-clonic [2, 18]: 6.5
Seizure frequency, Clonic [2, 18]: 0.0
reduction in clonic seizures [2, 19]: 100%
reduction in focal seizures with impairment [2, 19]: 100%
relief from focal seizures with impairment after treatment ([3]; Patient 3): complete relief
reduction in focal seizures with impairment [3, 20]: 100%
reduction in focal seizures with secondary generalisation [3, 20]: 100%
Seizure frequency, Focal without impairment [3, 21]: 0.0
Seizure frequency, Focal with impairment [3, 21]: 20.0
Seizure frequency, Focal with secondary generalisation [3, 21]: 50.0
Seizure frequency, Focal without impairment [3, 22]: 0.0
Seizure frequency, Focal with impairment [3, 22]: 22.0
Seizure frequency, Focal with secondary generalisation [3, 22]: 61.0
Seizure frequency, Focal without impairment [3, 23]: 0.0
Seizure frequency, Focal with impairment [3, 23]: 15.4
Seizure frequency, Focal with secondary generalisation [3, 23]: 109.1
Seizure frequency, Focal without impairment [3, 24]: 0.0
Seizure frequency, Focal with impairment [3, 24]: 0.6
Seizure frequency, Focal with secondary generalisation [3, 24]: 46.2
Seizure frequency, Focal without impairment [3, 25]: 0.0
Seizure frequency, Focal with impairment [3, 25]: 0.0
Seizure frequency, Focal with secondary generalisation [3, 25]: 58.1
Seizure frequency, Focal without impairment [3, 26]: 0.0
Seizure frequency, Focal with impairment [3, 26]: 0.0
Seizure frequency, Focal with secondary generalisation [3, 26]: 0.0
Seizure frequency, Focal without impairment [3, 27]: 0.0
Seizure frequency, Focal with impairment [3, 27]: 0.0
Seizure frequency, Focal with secondary generalisation [3, 27]: 14.8
Seizure frequency, Focal without impairment [3, 28]: 0.0
Seizure frequency, Focal with impairment [3, 28]: 71.3
Seizure frequency, Focal with secondary generalisation [3, 28]: 0.0
Seizure frequency, Focal without impairment [3, 29]: 0.0
Seizure frequency, Focal with impairment [3, 29]: 62.5
Seizure frequency, Focal with secondary generalisation [3, 29]: 0.0
Seizure frequency, Focal without impairment [3, 30]: 0.0
Seizure frequency, Focal with impairment [3, 30]: 14.8
Seizure frequency, Focal with secondary generalisation [3, 30]: 0.0
Seizure frequency, Focal without impairment [3, 31]: 10.8
Seizure frequency, Focal with impairment [3, 31]: 0.3
Seizure frequency, Focal with secondary generalisation [3, 31]: 0.0
Seizure frequency, Focal without impairment [3, 32]: 11.4
Seizure frequency, Focal with impairment [3, 32]: 0.0
Seizure frequency, Focal with secondary generalisation [3, 32]: 0.0
Seizure frequency, Focal without impairment [3, 33]: 9.8
Seizure frequency, Focal with impairment [3, 33]: 0.0
Seizure frequency, Focal with secondary generalisation [3, 33]: 0.0
